Data reported in patent US20050187181A1 (University of Maryland, priority 2004, published 2005).
“Also recorded” adds a separate entry of the source.

What was measured:
[1] = system: Na/K ATPase; test: Na/K ATPase assay (86Rb uptake into red blood cells);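 on all read-outs here: washed human red blood cells in K-free Ringer, test agent preincubated 20 min, then 86Rb uptake over 4 h at 37 °C counted as CPM per tube versus water control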; settings: for Na/K ATPase activity in erythrocytes: 6-thio inosine and 6-thio guanosine both 1 mM (FIG. 17); for Na/K ATPase stimulatory activity of adenosine analogs and metabolites: 1 mM (FIG. 4); for effect of equilibrative nucleoside transport inhibitor on purine stimulation of Na/K ATPase: dipyridamole 1 mM, NBTI 10 μM, purine 1 mM (FIGS. 12 and 13); for effect of phosphate analogs and bases on Na/K ATPase: FIG. 10; for effect of adenosine-receptor blocker on stimulation of Na/K ATPase by inosine, adenosine, guanosine, deoxyadenosine or deoxyguanosine: FIG. 11; for effect of adenosine-receptor blocker on adenosine stimulation of Na/K ATPase: equimolar doses added together with adenosine (FIG. 5); for effect of pyrimidines on Na/K ATPase: doses ranging from 10^-3 to 10^-10 M; for relative effectiveness at stimulating Na/K ATPase: 10^-3 Molar (FIG. 8); for stimulation of Na/K ATPase: human red blood cells, dose response (FIG. 3b, FIG. 8); for stimulation of Na/K ATPase in the presence of ouabain: partial inhibition / sub maximal doses of ouabain (FIG. 9); for effect of hormones on Na/K ATPase activity: doses of 10^-3 to 10^-9 M
Procedure: Human red blood cells of any group-type were donated for research by the Blood Bank of the University Of Maryland, School of Medicine. Five ml of red cells are washed 3 times in 40 ml of Potassium free Ringers solution (141 mM NaCl, 1 mM H2NaPO4, 0.5 mM CaCl2, 1 mM MgSO4, 4.5 mM glucose, 10 mM HEPES pH7.4). 50 μl of washed red cells are added to 220 μl of potassium free Ringers solution. 30, 10, 3 or 1 μl of ultra-filtrate, HPLC (high performance liquid chromatography) fraction, or adenosine, inosine, guanosine, deoxyadenosine, deoxyguanosine, caffeine, aminophylline, dipyridamole, NBTI, 6thioinosine, 6thioguanosine, or EHNA (all in buffer) is added to the mixture and incubated for 20 min. 4 μCi of 86RbCl is added and incubated for 4 hrs at 37° C. The mixture is than washed three times with 4° C. Potassium free Ringers solution and the cells counted in a gamma counter (Packard, Cobra II). Na/K ATPase activity is expressed as the CPM (counts per minute) (CPM/tube*4 hrs). The effects of ultra-filtrate or HPLC fractions on ^86Rb uptake into red cells are compared to equal volumes of either water (control) or, in some cases, 0.01 mM Ouabain (maximal inhibition).

[2] = system: rats in severe hemorrhagic shock; settings: for effect on shock-elevated plasma K^+: 0.5 hr; for Plasma K^+ 0.5 hr after Resuscitation: mean ± SE, N = 7/group
Procedure: Pentobarbital-anesthetized rats were subjected to severe hemorrhagic shock. Five groups of eight rats were resuscitated.
Plasma K^+ was measured from plasma taken before hemorrhage, before resuscitation and 0.5 hrs after resuscitation using a K^+ electrode (Jenco Electronics, Inc., San Diego, Calif.). Survival time between groups was compared by Kaplan-Meier survival Analysis.

CCCCCC[C@@H]([C@@H](C)O)n1cnc2c(N)ncnc21 (racemic) [EHNA, erythrohydroxy3-nonyl-adenine]
Na/K ATPase activity in erythrocytes [1]: stimulate Na/K ATPase

Nc1nc2c(ncn2[C@@H]2O[C@H](CO)[C@@H](O)[C@H]2O)c(=S)[nH]1 [6-thioguanosine]
Na/K ATPase activity in erythrocytes [1]: stimulate Na/K ATPase

OC[C@H]1O[C@@H](n2cnc3c(S)ncnc32)[C@H](O)[C@@H]1O [6-thioinosine]
Na/K ATPase activity in erythrocytes [1]: stimulate Na/K ATPase

Nc1ncnc2c1ncn2[C@@H]1O[C@H](COP(=O)(O)OP(=O)(O)O)[C@@H](O)[C@H]1O [ADP]
Na/K ATPase stimulatory activity of adenosine analogs and metabolites [1]: little or no Na/K ATPase stimulatory activity

Nc1ncnc2c1ncn2[C@@H]1O[C@H](COP(=O)(O)O)[C@@H](O)[C@H]1O [AMP]
Na/K ATPase stimulatory activity of adenosine analogs and metabolites [1]: little or no Na/K ATPase stimulatory activity

Nc1ncnc2c1ncn2[C@@H]1O[C@H](COP(=O)(O)OP(=O)(O)OP(=O)(O)O)[C@@H](O)[C@H]1O [ATP]
Na/K ATPase stimulatory activity of adenosine analogs and metabolites [1]: little or no Na/K ATPase stimulatory activity

O=[N+]([O-])c1ccc(CSc2ncnc3c2ncn3[C@@H]2O[C@H](CO)[C@@H](O)[C@H]2O)cc1 [NBTI, S-(4-nitrobenzyl)-6-thioinosine]
effect of equilibrative nucleoside transport inhibitor on purine stimulation of Na/K ATPase [1]: blocked stimulation of Na/K ATPase by any of the five purines tested

Nc1ncnc2nc[nH]c12 [adenine]
Na/K ATPase stimulatory activity of adenosine analogs and metabolites [1]: little or no Na/K ATPase stimulatory activity
effect of phosphate analogs and bases on Na/K ATPase [1]: None of the purine analogs significantly affected Na/K ATPase

Cn1c(=O)c2[nH]cnc2n(C)c1=O [aminophylline]
effect of adenosine-receptor blocker on stimulation of Na/K ATPase by inosine, adenosine, guanosine, deoxyadenosine or deoxyguanosine [1]: Neither of these adenosine-receptor blockers had a significant effect on stimulation of Na/K ATPase
effect of adenosine-receptor blocker on adenosine stimulation of Na/K ATPase [1]: did not affect the ability of adenosine to stimulate Na/K ATPase

Cn1c(=O)c2c(ncn2C)n(C)c1=O [caffeine]
effect of adenosine-receptor blocker on stimulation of Na/K ATPase by inosine, adenosine, guanosine, deoxyadenosine or deoxyguanosine [1]: Neither of these adenosine-receptor blockers had a significant effect on stimulation of Na/K ATPase
effect of adenosine-receptor blocker on adenosine stimulation of Na/K ATPase [1]: did not affect the ability of adenosine to stimulate Na/K ATPase

Nc1ccn([C@@H]2O[C@H](CO)[C@@H](O)[C@H]2O)c(=O)n1 [cytidine, reference compound]
effect of pyrimidines on Na/K ATPase [1]: had no effect in the assay
time to 100% mortality ([2]; 2.5 mM in saline): 50 min
time within which all resuscitated rats died ([2]; 2.5 mM in saline): ≤ 52 min
mean arterial blood pressure after resuscitation ([2]; 2.5 mM in saline (FIG. 15)): mean arterial blood pressure fell earlier
effect on shock-elevated plasma K^+ ([2]; 2.5 mM in saline): did not lower plasma K^+ concentration
Plasma K^+ 0.5 hr after Resuscitation ([2]; 2.5 mM in saline): 4.30 ± 0.35 mM

Nc1ncnc2c1ncn2[C@H]1C[C@H](O)[C@@H](CO)O1 [deoxyadenosine]
relative effectiveness at stimulating Na/K ATPase [1]: less effective than guanosine and inosine, but more effective than deoxyguanosine
stimulation of Na/K ATPase [1]: stimulated Na/K ATPase in a dose-dependent manner
stimulation of Na/K ATPase in the presence of ouabain [1]: overcame partial inhibition by ouabain

Nc1ccn([C@H]2C[C@H](O)[C@@H](CO)O2)c(=O)n1 [deoxycytidine]
effect of pyrimidines on Na/K ATPase [1]: had no effect in the assay

Nc1nc2c(ncn2[C@H]2C[C@H](O)[C@@H](CO)O2)c(=O)[nH]1 [deoxyguanosine]
stimulation of Na/K ATPase [1]: stimulated Na/K ATPase in a dose-dependent manner
stimulation of Na/K ATPase in the presence of ouabain [1]: overcame partial inhibition by ouabain

OCCN(CCO)c1nc(N2CCCCC2)c2nc(N(CCO)CCO)nc(N3CCCCC3)c2n1 [dipyridamole]
effect of equilibrative nucleoside transport inhibitor on adenosine stimulation of Na/K ATPase ([1]; dipyridamole 1 mM (FIG. 6)): blocked adenosine stimulation of Na/K ATPase
effect of equilibrative nucleoside transport inhibitor on purine stimulation of Na/K ATPase [1]: blocked stimulation of Na/K ATPase by any of the five purines tested

NCCc1ccc(O)c(O)c1 [dopamine]
effect of hormones on Na/K ATPase activity [1]: had no effect on Na/K ATPase activity

CNC[C@H](O)c1ccc(O)c(O)c1 [epinephrine]
effect of hormones on Na/K ATPase activity [1]: had no effect on Na/K ATPase activity

Nc1nc2nc[nH]c2c(=O)[nH]1 [guanine]
effect of phosphate analogs and bases on Na/K ATPase [1]: None of the purine analogs significantly affected Na/K ATPase

Nc1nc2c(ncn2[C@@H]2O[C@H](CO)[C@@H](O)[C@H]2O)c(=O)[nH]1 [guanosine]
relative effectiveness at stimulating Na/K ATPase [1]: both equally effective
stimulation of Na/K ATPase [1]: stimulated Na/K ATPase in a dose-dependent manner
stimulation of Na/K ATPase in the presence of ouabain [1]: overcame partial inhibition by ouabain
bradycardia on resuscitation from hemorrhagic shock ([2]; 2.5 mM in saline): did not cause the bradycardia
time to 50% mortality ([2]; 2.5 mM in saline): sooner than with inosine
time to 100% mortality ([2]; 2.5 mM in saline): 200 min
effect on shock-elevated plasma K^+ ([2]; 2.5 mM in saline): lowered the shock-elevated plasma K^+
Plasma K^+ 0.5 hr after Resuscitation ([2]; 2.5 mM in saline): 3.01 ± 0.15 mM
adverse effects on resuscitation from hemorrhagic shock ([2]; rat, in vivo): without any adverse effects
survival compared to saline and cytidine controls (Kaplan-Meier) ([2]; single dose of 2.5 mM in saline, 8 rats/group, p<0.001): survived significantly longer than saline or cytidine controls; also recorded: significantly increased survival; also recorded: survived significantly longer

O=c1[nH]cnc2nc[nH]c12 [hypoxanthine]
Na/K ATPase stimulatory activity of adenosine analogs and metabolites [1]: little or no Na/K ATPase stimulatory activity
effect of phosphate analogs and bases on Na/K ATPase [1]: None of the purine analogs significantly affected Na/K ATPase

NC[C@H](O)c1ccc(O)c(O)c1 [norepinephrine]
effect of hormones on Na/K ATPase activity [1]: had no effect on Na/K ATPase activity

C[C@@H]1O[C@@H](O[C@H]2C[C@@H](O)[C@]3(CO)[C@H]4[C@H](O)C[C@]5(C)[C@@H](C6=CC(=O)OC6)CC[C@]5(O)[C@@H]4CC[C@]3(O)C2)[C@H](O)[C@H](O)[C@H]1O [ouabain]
inhibition of Na/K ATPase stimulation by the rat plasma ultra-filtrate ([1]; FIG. 3a): inhibited in a dose-dependent manner
inhibition of Na/K ATPase stimulation by adenosine ([1]; FIG. 3c): inhibited in a dose dependent manner
inhibition of Na/K ATPase stimulation by inosine, guanosine, deoxyadenosine and deoxyguanosine ([1]; maximal doses of ouabain (FIG. 9)): inhibited by maximal doses of ouabain

Cc1cn([C@H]2C[C@H](O)[C@@H](CO)O2)c(=O)[nH]c1=O [thymidine]
effect of pyrimidines on Na/K ATPase [1]: had no effect in the assay

N[C@@H](Cc1cc(I)c(Oc2cc(I)c(O)c(I)c2)c(I)c1)C(=O)O [thyroxine]
effect of hormones on Na/K ATPase activity [1]: had no effect on Na/K ATPase activity

O=c1[nH]c(=O)c2[nH]c(=O)[nH]c2[nH]1 [uric acid]
Na/K ATPase stimulatory activity of adenosine analogs and metabolites [1]: little or no Na/K ATPase stimulatory activity

O=c1ccn([C@@H]2O[C@H](CO)[C@@H](O)[C@H]2O)c(=O)[nH]1 [uridine]
effect of pyrimidines on Na/K ATPase [1]: had no effect in the assay

NC(=O)CC[C@@H]1NC(=O)[C@H](Cc2ccccc2)NC(=O)[C@H](Cc2ccc(O)cc2)NC(=O)[C@@H](N)CSSC[C@@H](C(=O)N2CCC[C@H]2C(=O)N[C@@H](CCCN=C(N)N)C(=O)NCC(N)=O)NC(=O)[C@H](CC(N)=O)NC1=O [vasopressin]
effect of hormones on Na/K ATPase activity [1]: had no effect on Na/K ATPase activity

O=c1[nH]c(=O)c2[nH]cnc2[nH]1 [xanthine]
Na/K ATPase stimulatory activity of adenosine analogs and metabolites [1]: little or no Na/K ATPase stimulatory activity

Insulin
effect of hormones on Na/K ATPase activity [1]: had no effect on Na/K ATPase activity
